Assay results reported in ChEMBL document CHEMBL1136873, “Application of combinatorial biocatalysis for a unique ring expansion of dihydroxymethylzearalenone” (Bioorg Med Chem Lett, 2009).
Calls of active or inactive are those of the source. The rule behind the calls is not given here.

test system: not listed separately; assay: Inhibition of MAPK

With `COc1cc(O)c2c(c1)CCCC(O)[C@H](O)C(=O)/C=C\C[C@H](C)OC2=O` (single isomer, unassigned) as the compound, how does the IC50 read?
The IC50 was 0.004 µM.

target: T1, Tyrosine-protein kinase Lck (Homo sapiens, UniProt P06239); assay: Inhibition of LCK at 10 uM
Target sequence in this assay (P06239 2-509 limits assumed): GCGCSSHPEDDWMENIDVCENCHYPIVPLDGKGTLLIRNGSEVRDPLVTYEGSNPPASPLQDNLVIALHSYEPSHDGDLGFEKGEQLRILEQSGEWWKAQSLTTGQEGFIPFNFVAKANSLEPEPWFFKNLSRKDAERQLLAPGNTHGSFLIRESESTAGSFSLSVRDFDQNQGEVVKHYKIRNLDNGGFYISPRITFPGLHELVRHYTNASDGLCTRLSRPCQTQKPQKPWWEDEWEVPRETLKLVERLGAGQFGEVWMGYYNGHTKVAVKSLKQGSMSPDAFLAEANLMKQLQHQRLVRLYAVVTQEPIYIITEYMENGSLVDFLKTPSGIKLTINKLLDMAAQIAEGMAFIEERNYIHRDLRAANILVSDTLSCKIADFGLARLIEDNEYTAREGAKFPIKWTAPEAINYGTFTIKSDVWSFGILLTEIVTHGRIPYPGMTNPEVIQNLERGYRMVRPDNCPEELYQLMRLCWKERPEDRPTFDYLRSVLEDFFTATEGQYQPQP

For `COc1cc(O)c2c(c1)/C=C/CC(=O)OCCC1(CCCCC1)CCOC(=O)CCC[C@H](C)OC2=O`, which Activity is on record?
Its Activity is “inactive”.

For `COc1cc(O)c2c(c1)/C=C/CC(=O)OC/C=C(\C)CC/C=C(\C)COC(=O)CCC[C@H](C)OC2=O`, which Activity is on record?
The Activity was “inactive”.

With `COc1cc(O)c2c(c1)/C=C/CC(=O)NCCCCCCCNC(=O)CCC[C@H](C)OC2=O` as the compound, how does the Activity read?
Its Activity is “inactive”.

Which Activity does the source give for `COc1cc(O)c2c(c1)/C=C/CC(=O)NCCCN(C)CCCNC(=O)CCC[C@H](C)OC2=O` here?
Its Activity is “inactive”.

With `COc1cc(O)c2c(c1)/C=C/CC(=O)OCCCC(c1ccccc1)(C(C)O)CCCOC(=O)CCC[C@H](C)OC2=O` (stereo not given in full) as the compound, how does the Activity read?
The Activity was “inactive”.

Which Activity does the source give for `COc1cc(O)c2c(c1)/C=C/CC(=O)OCCCOCCCOC(=O)CCC[C@H](C)OC2=O` here?
Its Activity is “inactive”.

For `COc1cc(O)c2c(c1)/C=C/CC(=O)OC/C=C\COC(=O)CCC[C@H](C)OC2=O`, which Activity is on record?
Its Activity is “inactive”.

For `COc1cc(O)c2c(c1)/C=C/CC(=O)OCCOC(=O)CCC[C@H](C)OC2=O`, which Activity is on record?
Its Activity is “inactive”.

Which Activity does the source give for `COc1cc(O)c2c(c1)/C=C/CC(=O)OCCCCOC(=O)CCC[C@H](C)OC2=O` here?
The Activity was “inactive”.

With `COc1cc(O)c2c(c1)/C=C/CC(=O)OCCCC(c1ccccc1)(C(O)c1ccccc1)CCCOC(=O)CCC[C@H](C)OC2=O` (stereo not given in full) as the compound, how does the Activity read?
Its Activity is “inactive”.

With `COc1cc(O)c2c(c1)/C=C/CC(=O)OCCCCCCOC(=O)CCC[C@H](C)OC2=O` as the compound, how does the Activity read?
The Activity was “inactive”.

Which Activity does the source give for `COc1cc(O)c2c(c1)/C=C/CC(=O)NCCCOCCCNC(=O)CCC[C@H](C)OC2=O` here?
The Activity was “inactive”.

Which Activity does the source give for `COc1cc(O)c2c(c1)/C=C/CC(=O)OCCOCC#CCOCCOC(=O)CCC[C@H](C)OC2=O` here?
Its Activity is “inactive”.

For `COc1cc(O)c2c(c1)/C=C/CC(=O)OCCCCCCCCOC(=O)CCC[C@H](C)OC2=O`, which Activity is on record?
The Activity was “inactive”.

For `COc1cc(O)c2c(c1)/C=C/CC(=O)OCc1cccc(c1)COC(=O)CCC[C@H](C)OC2=O`, which Activity is on record?
Its Activity is “inactive”.

Which Activity does the source give for `COc1cc(O)c2c(c1)/C=C/CC(=O)NCCCCNC(=O)CCC[C@H](C)OC2=O` here?
Its Activity is “inactive”.

Which Activity does the source give for `COc1cc(O)c2c(c1)/C=C/CC(=O)NCCCOCCCCOCCCNC(=O)CCC[C@H](C)OC2=O` here?
The Activity was “inactive”.

target: T1, Tyrosine-protein kinase Lck
Target sequence in this assay (P06239 whole entry): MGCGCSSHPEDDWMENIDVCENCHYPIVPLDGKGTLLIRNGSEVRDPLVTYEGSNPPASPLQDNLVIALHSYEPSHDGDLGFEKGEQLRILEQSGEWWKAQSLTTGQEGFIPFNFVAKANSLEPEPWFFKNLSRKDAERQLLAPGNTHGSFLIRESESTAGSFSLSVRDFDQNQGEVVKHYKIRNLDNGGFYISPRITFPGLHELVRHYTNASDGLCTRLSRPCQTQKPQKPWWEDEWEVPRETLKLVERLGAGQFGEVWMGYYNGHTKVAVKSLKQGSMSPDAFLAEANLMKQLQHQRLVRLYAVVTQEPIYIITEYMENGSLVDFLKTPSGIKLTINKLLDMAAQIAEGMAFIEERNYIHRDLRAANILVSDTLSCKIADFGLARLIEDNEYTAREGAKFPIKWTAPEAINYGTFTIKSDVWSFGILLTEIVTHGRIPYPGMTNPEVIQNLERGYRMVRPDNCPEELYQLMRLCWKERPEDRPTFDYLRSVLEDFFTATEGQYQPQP

Which IC50 does the source give for `COc1cc(O)c2c(c1)/C=C/C[C@@H](O)[C@H](O)C(=O)CCC[C@H](C)OC2=O` [DIHYDROXYMETHYLZEARALENONE] here?
Its IC50 is 0.2 µM.

Which IC50 does the source give for `COc1cc(O)c2c(c1)CCCC(O)[C@H](O)C(=O)/C=C\C[C@H](C)OC2=O` (single isomer, unassigned) here?
Its IC50 is 0.75 µM.
